# Measurements reported in patent US20170223953A1, “MICROBICIDAL COMPOSITION” (Dow Global Technologies LLC, priority 2016, published 2017).
# System: Desulfovibrio longus ATCC 51456
# Test: Biocidal efficacy (complete bacterial kill in 2 hours) and Synergy Index against anaerobic sulfate-reducing bacteria
# Type: cell-based
# Settings: 35° C.
# Experimental: Surfactants and biocides were evaluated for synergy by determining the synergy index (S.I.) of the combination. Synergy index was calculated based on the concentration required to achieve a certain level of bacterial kill when the two antimicrobial compounds (A and B) are used alone and in combinations. The tests organisms were anaerobic sulfate-reducing bacteria (Desulfovibrio longus ATCC #51456). Inside an anaerobic chamber (Bactron anaerobic chamber), a deoxygenated sterile salt solution (3.1183 g of NaCl, 1.3082 mg of NaHCO3, 47.70 mg of KCl, 72.00 mg of CaCl2, 54.49 mg of MgSO4, 172.28 mg of Na2SO4, 43.92 mg of Na2CO3 in 1 L water) was inoculated with Desulfovibrio longus ATCC 51456 to a final bacterial concentration of 10^6 to 10^7 CFU/mL. Aliquots of this cell suspension were then treated with glutaraldehyde, and each of Surf A and B at selected active concentrations. After incubation at 35° C. for 2 hours, viable bacteria in the aliquots were enumerated using serial dilution method. […] SI is calculated as follows: Ca/CA+Cb/CB=Synergy Index (“SI”) Wherein: • Ca=Concentration of biocide A required to achieve a certain level of bacterial kill when used in combination with B • CA=Concentration of biocide A required to achieve a certain level of bacterial kill when used alone • Cb=Concentration of biocide B required to achieve a certain level of bacterial kill when used in combination with A • CB=Concentration of biocide B required to achieve a certain level of bacterial kill when used alone When the sum of Ca/CA and Cb/CB is greater than one, antagonism is indicated.
structure (smiles),measurement,setting,value
"O=CCCCC=O [Glut, glutaraldehyde]","Concentration (active ppm) for complete bacterial kill in 2 hours, Glut","Table 1, Glut alone or in combination with Surf. A, 10^6 to 10^7 CFU/mL",8.8 active ppm
same,"Concentration (active ppm) for complete bacterial kill in 2 hours, Glut","Table 2, Glut alone or in combination with Surf. B",19.8 active ppm
same,"Concentration (active ppm) for complete bacterial kill in 2 hours, Glut","Table 3, Glut alone or in combination with Surf. C",19.8 active ppm
